The values that follow come from publication PMC6709783, “Structural Basis for Allosteric Ligand Recognition in the Human CC Chemokine Receptor 7” (Cell, 2019).

One assay addresses T1, human CCR7 (Homo sapiens, UniProt P32248, L145W).
T1 construct: enhanced green fluorescent protein (eGFP) (C); decahistidine-tag (His10) (C); made in house; host or cells: Sf9 insect cells (baculovirus)
T1 sequence (P32248 25-348 L145W): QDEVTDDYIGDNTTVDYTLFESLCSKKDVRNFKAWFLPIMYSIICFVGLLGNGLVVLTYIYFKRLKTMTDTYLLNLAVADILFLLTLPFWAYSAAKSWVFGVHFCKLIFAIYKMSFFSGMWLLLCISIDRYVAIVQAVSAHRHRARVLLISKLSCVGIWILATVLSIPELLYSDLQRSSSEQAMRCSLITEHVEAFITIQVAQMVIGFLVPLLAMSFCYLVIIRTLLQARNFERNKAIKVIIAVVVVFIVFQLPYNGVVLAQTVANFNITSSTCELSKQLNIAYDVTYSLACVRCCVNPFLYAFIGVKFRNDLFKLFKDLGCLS
Briefly: Thermofluor stability assay (thermal shift, CPM dye) with purified CCR7-L145W. As to conditions: Figure 4B; for thermo-stabilizing effect on CCR7 (in words): known chemokine receptor ligands tested for selectivity of the pocket. It is filed as binding. How it is done: The plate was sealed and incubated for 30 min on ice. A 1:100 (v/v) working solution of the CPM (N-[4-(7-diethylamino-4-methyl-3-coumarinyl)phenyl]maleimide) dye stock (3 mg/mL in DMSO) was prepared and 5.14 μL of this solution were added to each well and mixed thoroughly. Out of each well, 3 × 20 μL were distributed into 0.1 mL Rotor-Gene Q tubes (QIAGEN). […] The gain set was determined at the beginning of the run. The melting temperature (Tm) was calculated from the point of inflection.
All liquid-handling steps were performed using a Bravo automated liquid handling platform and a 96LT head.
Melting temperatures (Tm) in the thermofluor stability assays were calculated and analyzed by automated scripts based on a fit to the Boltzmann equation. Details on significance levels and number of experiments are given in the corresponding figure legends.
(In general: Differential scanning fluorimetry follows unfolding on heating by fluorescence.)

Another assay concerns the target T2, CCR7 (Homo sapiens, UniProt P32248).
T2 construct: host or cells: CHO-K1 (PathHunter eXpress CCR7 β-Arrestin)
T2 sequence (P32248 25-378): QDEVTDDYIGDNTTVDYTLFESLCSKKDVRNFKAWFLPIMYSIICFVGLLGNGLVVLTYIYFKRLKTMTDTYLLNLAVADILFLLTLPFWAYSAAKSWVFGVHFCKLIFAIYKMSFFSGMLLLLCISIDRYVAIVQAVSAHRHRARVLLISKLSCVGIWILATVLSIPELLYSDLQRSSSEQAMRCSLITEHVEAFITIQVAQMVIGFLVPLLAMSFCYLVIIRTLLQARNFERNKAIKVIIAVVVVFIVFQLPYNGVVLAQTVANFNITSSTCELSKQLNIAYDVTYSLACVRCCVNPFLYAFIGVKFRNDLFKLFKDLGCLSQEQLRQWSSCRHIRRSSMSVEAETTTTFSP
Briefly: Cellular arrestin recruitment assay (PathHunter eXpress CCR7 CHO-K1 β-Arrestin). As to conditions: agonist concentration used for challenge. It is filed as cell-based. The source says: Microplates were read following signal generation with a PerkinElmer Envision™ instrument for chemiluminescent signal detection.
On the technique in general: Arrestin recruitment assays detect the binding of arrestin to an activated receptor.

The subject of the next assay is CCR5 receptor. As to conditions: ref Knepp et al., 2011; cited from earlier work.
In assay [1] the target is T3, CCR7 in PathHunter eXpress CCR7 CHO-K1 β-Arrestin cells (human, UniProt P32248 25-378).
T3 sequence (looked up): T2 sequence (P32248 25-378)
Briefly: cell-based or functional assay.

As for `CCOc1ccc(NC(=O)C2CCN(C3=NS(=O)(=O)C(c4ccc(OC)cc4)=C3C)CC2)cc1` [CS-1], the “stabilizing effect on CCR7” value at human CCR7 (hit from virtual and automated thermofluor screening (50 μM ligand)) came to 2.4 °C. Turning to `CC1(C)CN2C(CSC(=NC3CCCCC3)NC3CCCCC3)=CSC2=N1` [IT1t], at human CCR7, the “thermo-stabilizing effect on CCR7 (in words)” value (“thermo-stabilizing effect” below) is on record as “did not affect CCR7”.

On to `CC(C)Cc1ccc([C@@H](C)C(=O)NS(C)(=O)=O)cc1` [Reparixin], for which, at human CCR7, the “thermo-stabilizing effect” value is “Neither did the CXCR2 antagonist Danirixin nor the CXCR1 and CXCR2 antagonist Reparixin stabilize CCR7”.

In the case of “CCL19: native chemokine agonist of CCR7 (human CCL19)”, the “EC80 concentration, arrestin recruitment” value with CCR7 came to 57 nM. As for Maraviroc, the “thermo-stabilizing effect” value at human CCR7 is on record as “did not affect CCR7”. Also, the “stabilizing effect on CCR5” value in the assay on CCR5 receptor is “up to 18.9 °C”.

B1: human CCL19 (ligand, UniProt Q99731 22-98, looked up)
chain: GTNDAEDCCLSVTQKPIPGYIVRNFHYLLIKDGCRVPAVVFTTLRGRQLCAPPDQPWVERIIQRLQRTSAKMKRRSS
modifications: radioactive label (2200 Ci/mmole) on the labeled part of the mixture
B1: in assay [1], the “arrestin recruitment in PathHunter eXpress CCR7 CHO-K1 β-Arrestin cells, dose response of CCL19 (EC50)” value was found to be 12 nM.
